Source: PMC13289212, “HIVIL: A human in vitro inflammatory liver model recapitulates immune-associated drug effects with high predictivity” (NAM journal, 2025)
pIC50: −log10 of the molar value. Like-named read-outs stand apart in the source and are kept apart here.

Legend:
[1] = Cammett et al. 2009, Mendes et al. 2014, cited from earlier work
IL-6 [2] = system: IL-6; set-up: method as in Steuerwald et al. 2013; Mahdy et al. 2002; Kang et al. 2001; conditions: ref Steuerwald et al. 2013; Mahdy et al. 2002; Kang et al. 2001; cited from earlier work
[3] = binary classification by human hepatotoxicity; ref Thakkar et al. 2020; cited from earlier work
IL-6 [4] = assay: IL-6 response in HIVIL using THP-1 macrophages co-cultured with iHeps; assay type: cell-based, human; conditions: HIVIL with THP-1 instead of iKCs, result in words
Text: (§1) Human iPSC cell line iPS (IMR90)-4 was purchased from WiCell Research Institute (Madison, WI), and maintained with a feeder-free method according to the instruction from […] Technologies (Vancouver, BC, Canada). The protocol of differentiation towards iKCs and iHeps as described previously with slight modification ([Tasnim et al., 2019]; [Cai et al., 2012]), respectively. The re-optimized protocol to generate iKCs is discussed in Results section. More details are provided in Supplementary Methods. After differentiation, iKCs was harvested using 0.05 % trypsin-EDTA (Gibco, Waltham, Massachusetts, USA), while iHeps were dissociated with TrypLE^TM (Gibco). iHep suspension was further filtered through a 40 µm cell strainer to remove extracellular matrix clumps. Cell suspension was centrifuged at 1000 rpm for 5 min. For co-culture set up, tissue culture plates were coated with Rat tail collagen I (Gibco) diluted 100-fold in 0.02 N acetic acid, and incubated at 37 °C for 1 h and washed 3 times with PBS. According to the protocol optimized by [Tasnim et al. (2019)], iKCs was firstly seeded at a density of 14,000 per well on 96-well plate with Advanced DMEM (plus supplements) containing 5 % FBS. On the following day, iHeps were added at a density of 35,000 per well in Williams’ Medium E (plus supplements) (iHep: iKCs ratio = 2.5: 1). This reflects the physiological ratio of these cells in vivo under inflammatory conditions ([Tasnim et al., 2021]). Fresh media containing drugs was applied to co-cultures the next day. 50,000 cells were seeded to establish iHeps monoculture. THP-1 cells were kindly obtained from Dr. Eliza Fong and cultured as described by [Zeng et al. (2015)]. Details provided in Supplementary Methods.
THP-1 maintenance and differentiation: THP-1 monocytic lineage was maintained in RPMI 1640 with 10% FBS. For differentiation to macrophages, suspension cells were collected and subjected to 2-day phorbol 12-myristate 13-acetate (PMA) treatment (50 ng/ml), followed by a 1-day PMA-free medium resting. THP-1 macrophages were trypsinzed and used for co-culture as described in Material and methods.
(§2) Enzyme-linked immunosorbent assay (ELISA) for measurement of cytokines: Interleukin-6 (IL-6), interleukin-10 (IL-10) and tumor necrosis factor alpha (TNFα) levels in the media were measured using the corresponding human-based ELISA kits (Abcam, Cambridge, United Kingdom) according to manufacturer’s instructions. The cytokine production from dosed cells was normalized with the viability value from the same well. The normalized cytokine level upon drug treatments was further presented as percentage of DMSO+LPS. Normalization to viability per well ensures that any changes in cytokines are not due to changes in cell numbers upon drug treatment and normalization to DMSO+LPS allows better comparison between different batches of experiments. This normalization approach has been used in previous studies (Rose et al. 2016).

IL-6 [5] = assay: IL-6 ELISA in HIVIL (iKCs co-cultured with iHeps, LPS, 48 hr); assay type: cell-based, human; conditions: HIVIL; for pIC50: Homo sapiens, LPS, 48 hr
Text: as §1, with “The re-optimized protocol to generate iKCs is discussed in Results section.” left out
(§3) Stock solutions of drugs were prepared in dimethyl sulfoxide (DMSO) and dissolved in medium prior to use. […] For these two drugs, the highest DMSO concentration was 1 %. Supernatant was collected at 48 hr for measurement of cytokines, and remaining cells were subjected to viability assay prior to lysis for RNA extraction.
as §2, with “Normalization to viability per well ensures that any changes in cytokines are not due to changes in cell numbers upon drug treatment and normalization to DMSO+LPS allows better comparison between different batches of experiments.” left out

IL-6 [6] = system: IL-6; set-up: method as in ref Hassan et al. 2016; Giustarini et al. 2019; Higuchi et al. 2012; Dik et al. 2018; conditions: ref Hassan et al. 2016; Giustarini et al. 2019; Higuchi et al. 2012; Dik et al. 2018; cited from earlier work
[7] = FDA-labeling information; ref Chen et al. 2016; cited from earlier work
IL-6 [8] = conditions: 858.6 μM, 1 μg/mL of LPS; ref Li et al. 2020; cited from earlier work
cytokines = system: cytokines; set-up: method as in ref Ganey et al. 2004; Honarmand et al. 2012; Manna and Aggarwal 1999; Yao et al. 2004; conditions: ref Ganey et al. 2004; Honarmand et al. 2012; Manna and Aggarwal 1999; Yao et al. 2004; cited from earlier work
TNFα [9] = conditions: ref Shaw et al. 2010; Zou et al. 2009; Bekker et al. 2012; Gandhi et al. 2013; Heidari et al. 2019; cited from earlier work
TNFα [10] = assay: TNFα ELISA in HIVIL (iKCs co-cultured with iHeps, LPS, 48 hr); assay type: cell-based, human; conditions: for TNFα induction: result in words
Text: as §1, with “The re-optimized protocol to generate iKCs is discussed in Results section.” left out
as §3
as §2, with “Normalization to viability per well ensures that any changes in cytokines are not due to changes in cell numbers upon drug treatment and normalization to DMSO+LPS allows better comparison between different batches of experiments.” left out

[11] = system: HIVIL (iKCs co-cultured with iHeps); assay: AlamarBlue cell viability in HIVIL; conditions: Homo sapiens, 48 h, read-out: IC50: viability
Method: as §3

[12] = ref Ho et al. 2015; Kaplowitz 2005; Verma and Kaplowitz 2009; cited from earlier work
IL-6 [13] = assay: IL-6 production of iKC mono-culture; assay type: cell-based, human; conditions: result in words
Method: as §2

IL-6 [14] = assay: Optimization of stimulator and duration: IL-6 production; assay type: cell-based, human
Text: In order to evaluate the time-dependent inflammatory responses, we measured interleukin-6 (IL-6) production within 48 hr post-LPS treatment.

[15] = ref in each cell: Ademisoye et al. 2018, Xu et al. 2008, Agabeyoglu and Incecayir 2009, Rojanasthien et al. 2007, Reunanen et al. 1992, Li et al. 2002, Hong-mei et al. 2013, Bareggi et al. 1987, Jiang et al. 2008

Method for iKCs mono-culture: Cell viability assays: Cell viability was examined with AlamarBlue^TM cell viability assay (Thermo Fisher Scientific Inc.) according to manufacturer’s instructions. Briefly, cells were exposed to AlamarBlue^TM working solution, which was diluted 10-fold using PBS containing 2 mg/mL of glucose, for 1 hour. Color change in the solution was measured using fluorescence (Ex: 530nm, Em: 590nm) in Tecan Microplate Reader M1000 PRO. The viability of dosed cells was presented as percentage of the corresponding vehicle control.

Row | Molecule | Cmax [1, 15] [µM] | Reported human responses: IL-6 (IL-6 [2]) | DILIst [3] | drug-specific IL-6 response with THP-1 macrophages (IL-6 [4]) | group by drug-dependent IL-6 production (IL-6 [5]) | DILIrank [7] | other results
1 | CCN(CC)Cc1cc(Nc2ccnc3cc(Cl)ccc23)ccc1O [AQ, amodiaquine] | 0.1 | IL-6↑ (Steuerwald et al. 2013) | 1 | failed to replicate IL-6 increases | – | – | IL-6 induction (IL-6 [5]; 10 μM): 1.47 fold
2 | NC(=O)N1c2ccccc2C=Cc2ccccc21 [CBZ, carbamazepine] | 25.3 | – | 1 | – | dose-dependent induction | most | Reported in-vivo (murine) responses: IL-6 (IL-6 [6]): IL-6↑(Higuchi et al. 2012); increase in IL-6 (IL-6 [5]): 1.7 fold
3 | NNC(=O)c1ccncc1 [INH, isoniazid] | – | IL-6↑ (Steuerwald et al. 2013) | 1 | failed to replicate IL-6 increases | – | most | Reported in-vivo (murine) responses: IL-6 (IL-6 [6]): IL-6↑ (Hassan et al. 2016); changes in IL-6 levels (IL-6 [8]): did not show any changes; IL-6 induction (IL-6 [5]; all doses tested): at least 1.2 fold
4 | Cc1oncc1C(=O)Nc1ccc(C(F)(F)F)cc1 [LFM, leflunomide] | 24.8 | – | 1 | – | dose-dependent induction | most | Reported in-vivo (murine) responses: cytokines (cytokines): cytokines↓ via NF-kB (Manna and Aggarwal 1999; Yao et al. 2004); increase in IL-6 (IL-6 [5]): 3.1 fold
5 | Nc1nnc(-c2cccc(Cl)c2Cl)c(N)n1 [LTG, lamotrigine] | 9.8 | IL-6↑(Steuerwald et al. 2013) | 1 | failed to replicate IL-6 increases | – | most | dose-dependent increase in IL-6 levels over baseline (IL-6 [5]): 1.5- to 2 fold
6 | Cc1ccnc2c1NC(=O)c1cccnc1N2C1CC1 [NVP, nevirapine] | – | – | 1 | – | dose-dependent inhibition | most | Reported in-vivo (murine) responses: TNFα (TNFα [9]): TNFα↑ (Bekker et al. 2012); TNFα induction (TNFα [10]): all concentrations; pIC50 (IL-6 [5]): 2.97; pIC50 [11]: 2.58
7 | O=C1NC(=O)C(c2ccccc2)(c2ccccc2)N1 [PHT, phenytoin] | 15.4 | IL-6↑ (Steuerwald et al. 2013) | 1 | failed to replicate IL-6 increases | – | most | dose-dependent increase in IL-6 levels over baseline (IL-6 [5]): 1.5- to 2 fold
8 | CCCc1cc(=O)[nH]c(=S)[nH]1 [PTU, propylthiouracil] | 17.6 | – | 1 | – | dose-dependent inhibition | most | Cmax ([1]; ref in each cell: Xu et al. 2008): 17.6 µM; Reported in-vivo (murine) responses: TNFα (TNFα [9]): TNFα↑ (Heidari et al. 2019); TNFα induction (TNFα [10]): all concentrations; pIC50 (IL-6 [5]): 3.59
9 | NC(=O)c1cnccn1 [PZA, pyrazinamide] | 407 | – | 1 | – | no dose-dependent changes | less | Known immune-mediated effects [12]: ×
10 | CC1=C(CC(=O)O)c2cc(F)ccc2/C1=C\c1ccc([S+](C)[O-])cc1 (stereo not drawn) [SLD, sulindac] | – | mechanistic IL-6↓ (Kang et al. 2001) | 1 | – | dose-dependent inhibition | most | toxicity to iKCs mono-culture compared to iHeps mono-culture and HIVIL (iKCs mono-culture): substantially higher toxicity; Reported in-vivo (murine) responses: TNFα (TNFα [9]): TNFα↑ (Zou et al. 2009); dose at which TNFα induction was observed (TNFα [10]): < 200 µM; reduction of IL-6 (IL-6 [5]): 50%; pIC50 (IL-6 [5]): 3.42; pIC50 [11]: 2.69; IL-6 / cytokine production in iKC mono-culture (IL-6 [13]): abolished
11 | CN(C/C=C/C#CC(C)(C)C)Cc1cccc2ccccc12 [TBF, terbinafine] | 3.4 | – | 1 | – | no dose-dependent changes | most | Known immune-mediated effects [12]: ×
12 | lipopolysaccharide [LPS] | – | – | – | – | – | – | IL-6 production compared to vehicle control (IL-6 [14]; 24 hr post-LPS treatment): 10.15 fold; IL-6 production compared to vehicle control (IL-6 [14]; 48 hr post-LPS treatment): 4.70 fold
13 | penicillin | – | – | 1 | – | no dose-dependent changes | less | Known immune-mediated effects [12]: ×
